The target in one data set is T1, c-Met (Homo sapiens, UniProt P08581).
T1 construct: purchased Invitrogen (Waltham, MA)
The data set is described as follows: In vitro c-Met enzymatic assay (HTRF). It counts as biochemical. The following applies: HTRF assay; mean ± SD, triplicate; read-out: IC50 against c-Met. How it is done: Inhibition of target compounds on c-Met kinase activity was measured by using the homogeneous time-resolved fluorescence (HTRF) assay.
The tyrosine kinases inhibitory activities of target compounds were evaluated in 384-well microtiter plates using purified kinases purchased from Invitrogen (Waltham, MA) by homogeneous time-resolved fluorescence (HTRF) assay. The HTRF KinEASE TK kit was performed according to the instructions. After the kinases and test compounds were incubated at 25–30 °C for 5 min, the kinase reactions were initiated by addition of 39 μL of kinase reaction buffer solution and incubated at 25–30 °C for 30 min. The reactions were quenched by addition 10 µL mixed detection solution. […] The inhibition rate (%) was calculated using the following equation: inhibition rate = [(activity of enzyme with tested compound – min)/(max – min)] × 100 (max: the enzyme activity in the presence of enzyme, substrates and cofactors; min: the enzyme activity in the presence of substrates, cofactors and in the absence of enzyme). IC50 value was calculated from the inhibition curve using GraphPad Prism 5.0 software (La Jolla, CA).

In another data set the test system is A549. Description: MTT antiproliferative assay, A549. The conditions noted are these: Homo sapiens, A549, 48 h, read-out: IC50 A549. (Formazan colour is commonly taken as a measure of viable cells.)
The test system of a further data set is HT-29. The data set is described as follows: MTT antiproliferative assay, HT-29. The conditions noted are these: Homo sapiens, HT-29, 48 h, read-out: IC50 HT-29.
Another data set deals with MKN-45. Description: MTT antiproliferative assay, MKN-45. The conditions noted are these: Homo sapiens, MKN-45, 48 h, read-out: IC50 MKN-45.
The test system of a further data set is MDA-MB-231. The data set is described as follows: MTT antiproliferative assay, MDA-MB-231. The conditions noted are these: Homo sapiens, MDA-MB-231, 48 h, read-out: IC50 MDA-MB-231.
In a further data set the test system is FHC. Description: MTT cytotoxicity assay, normal FHC cells. The conditions noted are these: Homo sapiens, 48 h, read-out: IC50 FHC.
Another data set deals with HUVEC. The data set is described as follows: MTT cytotoxicity assay, normal HUVEC cells. The conditions noted are these: Homo sapiens, 48 h, read-out: IC50 HUVEC.
The subject of the next data set is MKN-45 cells. The data set is described as follows: Apoptosis by Annexin V/PI double staining, flow cytometry. The conditions noted are these: MKN-45, 1.2 μM, 24 h; control 6.02%. A general note: Flow cytometry measures light scatter and fluorescence of single cells or particles in a stream.
Data set [1] has as its system c-Met and its downstream protein Akt in MDA-MB-231 cells. Further details: method as in earlier work. The following applies: cited from earlier work.

A value given as a limit tells only on which side of the number the result lay.

As usually defined, the IC50 is the point on the concentration scale where inhibition reaches its midpoint. The melting point is the temperature of the solid-liquid transition.

T1 sequence (P08581 25-1390): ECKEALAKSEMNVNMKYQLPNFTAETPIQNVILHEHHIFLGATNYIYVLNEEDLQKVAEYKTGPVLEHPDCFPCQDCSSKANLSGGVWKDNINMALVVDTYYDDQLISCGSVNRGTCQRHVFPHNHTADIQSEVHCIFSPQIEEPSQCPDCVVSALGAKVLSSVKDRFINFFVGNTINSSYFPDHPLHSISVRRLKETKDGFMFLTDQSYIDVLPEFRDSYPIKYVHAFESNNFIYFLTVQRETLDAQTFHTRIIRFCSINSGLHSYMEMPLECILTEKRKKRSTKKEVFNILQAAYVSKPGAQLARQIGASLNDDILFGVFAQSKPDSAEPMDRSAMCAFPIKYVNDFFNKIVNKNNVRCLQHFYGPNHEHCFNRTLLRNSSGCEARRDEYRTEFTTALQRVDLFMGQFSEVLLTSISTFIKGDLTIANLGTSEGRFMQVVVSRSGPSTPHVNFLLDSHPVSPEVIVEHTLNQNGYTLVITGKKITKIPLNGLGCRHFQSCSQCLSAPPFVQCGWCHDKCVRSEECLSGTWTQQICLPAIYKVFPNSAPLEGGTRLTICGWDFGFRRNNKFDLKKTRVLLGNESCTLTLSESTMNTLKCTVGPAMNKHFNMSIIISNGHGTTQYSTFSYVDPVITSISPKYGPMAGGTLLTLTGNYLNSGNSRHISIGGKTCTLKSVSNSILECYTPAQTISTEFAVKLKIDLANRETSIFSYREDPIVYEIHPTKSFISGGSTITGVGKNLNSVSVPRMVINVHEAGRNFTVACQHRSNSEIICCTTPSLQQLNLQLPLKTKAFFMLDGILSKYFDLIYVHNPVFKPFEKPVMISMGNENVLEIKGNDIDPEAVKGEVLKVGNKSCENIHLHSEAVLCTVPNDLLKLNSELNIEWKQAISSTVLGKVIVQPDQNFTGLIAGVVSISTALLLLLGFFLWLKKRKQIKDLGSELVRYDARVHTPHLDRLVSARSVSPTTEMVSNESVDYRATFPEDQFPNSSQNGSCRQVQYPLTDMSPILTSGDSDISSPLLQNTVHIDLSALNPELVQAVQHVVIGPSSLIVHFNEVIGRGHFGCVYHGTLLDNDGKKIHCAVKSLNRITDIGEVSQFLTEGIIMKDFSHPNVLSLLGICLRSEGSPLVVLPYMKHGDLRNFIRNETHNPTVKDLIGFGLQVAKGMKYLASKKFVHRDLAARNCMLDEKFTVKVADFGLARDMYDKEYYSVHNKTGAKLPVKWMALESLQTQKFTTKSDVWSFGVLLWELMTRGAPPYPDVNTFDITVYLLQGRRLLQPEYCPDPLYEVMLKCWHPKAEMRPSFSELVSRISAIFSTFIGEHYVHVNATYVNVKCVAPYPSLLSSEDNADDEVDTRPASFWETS
Protocol for A549: (§1) MTT assay was used to determine the cytotoxic activity of target compounds against different cell lines. […] Then, the cells were treated with five doses of test compounds (pre-dissolved in DMSO), and 0.1% DMSO was used as a negative control. […] The results expressed as IC50 were the average of three determinations calculated by using the Bacus Laboratories Incorporated Slide Scanner (Bliss) software.
Protocol for FHC: as §1
Protocol for HT-29: as §1
Protocol for HUVEC: as §1
Protocol for MKN-45 cells: Apoptosis was detected by an Annexin V/propidium iodide (PI) double staining kit (Beyotime Biotechnology, Shanghai, China). […] Cells were harvested by trypsinisation and washed with ice-cold PBS solution. Cells were labelled with annexin V and PI and incubated at room temperature for 30 min in the dark. The labelled cells were analysed by a FACScan flow cytometer (Becton Dickinson, Franklin Lakes, NJ).

With `O=C(Nc1ccc(Oc2ccnc3ccsc23)c(F)c1)c1nc(-c2ccccc2)cs1` [Compound 51q, N-(3-Fluoro-4-(thieno[3,2-b]pyridin-7-yloxy)phenyl)-4-phenylthiazole-2-carboxamide], the melting point is 251 to 253 °C. At c-Met, the IC50 was 0.0385 ± 0.00423 µM. In addition, the IC50 with A549 turned out to be 12.9 ± 1.82 µM. The IC50 in the data set with HT-29 is 19.4 ± 2.48 µM. Also, in the data set on MKN-45, the IC50 amounted to 5.95 ± 0.63 µM. In addition, in the data set on MDA-MB-231, the IC50 turned out to be 32.5 ± 2.68 µM. Besides, the IC50 with FHC was found to be 80.6 ± 4.52 µM. In the data set with HUVEC, the IC50 is 69.5 ± 2.68 µM.

The compound `O=C(Nc1ccc(Oc2ccnc3ccsc23)c(F)c1)c1nc(-c2ccc(F)cc2)cs1` [Compound 51r, N-(3-Fluoro-4-(thieno[3,2-b]pyridin-7-yloxy)phenyl)-4-(4-fluorophenyl)thiazole-2-carboxamide] came in with a melting point of 223 to 225 °C. The 50% inhibitory concentration (IC50) on c-Met came to 0.0353 ± 0.00519 µM. Besides, in the data set with A549, the concentration for half-maximal inhibition (IC50) stood at 10.5 ± 1.76 µM. For the same compound, in the data set with HT-29, the IC50 was determined as 18.3 ± 3.62 µM. Also, in the data set on MKN-45, the IC50 is 5.02 ± 0.77 µM. The IC50 in the data set on MDA-MB-231 worked out at 28.9 ± 3.13 µM. For the same compound, the IC50 with FHC worked out at 51.2 ± 4.61 µM. Also, the IC50 in the data set on HUVEC was found to be 40.6 ± 2.25 µM.

Take `O=C(Nc1ccc(Oc2ncnc3ccsc23)c(F)c1)c1nc(-c2ccccc2)cs1` [Compound 51s, N-(3-Fluoro-4-(thieno[3,2-d]pyrimidin-4-yloxy)phenyl)-4-phenylthiazole-2-carboxamide]: the melting point fell in the range of 95 to 97 °C. Also, on c-Met, the concentration for half-maximal inhibition (IC50) was 0.0433 ± 0.00625 µM. Moreover, the concentration for half-maximal inhibition (IC50) in the data set with A549 was 18.4 ± 2.33 µM. Also, the half-maximal inhibitory concentration (IC50) in the data set with HT-29 is 25.6 ± 1.76 µM. Moreover, the IC50 in the data set on MKN-45 came out at 6.05 ± 0.94 µM. In addition, the IC50 in the data set with MDA-MB-231 worked out at 32.8 ± 2.7 µM. Moreover, in the data set on FHC, the IC50 turned out to be 65.5 ± 5.56 µM. For the same compound, the half-maximal inhibitory concentration (IC50) in the data set with HUVEC was 43.4 ± 3.65 µM.

`O=C(Nc1ccc(Oc2ncnc3ccsc23)c(F)c1)c1nc(-c2ccc(F)cc2)cs1` [Compound 51t, N-(3-Fluoro-4-(thieno[3,2-d]pyrimidin-4-yloxy)phenyl)-4-(4-fluorophenyl)thiazole-2-carboxamide] registered a melting point of 146 to 148 °C. Besides, the IC50 at c-Met stood at 0.0404 ± 0.00366 µM. Moreover, the IC50 in the data set with A549 is 14.5 ± 2.87 µM. The 50% inhibitory concentration (IC50) with HT-29 was determined as 23.1 ± 3.34 µM. For the same compound, the concentration for half-maximal inhibition (IC50) with MKN-45 is 5.45 ± 0.65 µM. For the same compound, in the data set with MDA-MB-231, the IC50 worked out at 36.6 ± 2.83 µM. Further, the IC50 in the data set on FHC was 67.4 ± 4.38 µM. The 50% inhibitory concentration (IC50) with HUVEC was determined as 41.4 ± 2.39 µM.

The compound `O=C(Nc1ccc(Oc2ncnc3sccc23)c(F)c1)c1nc(-c2ccccc2)cs1` [Compound 51u, N-(3-Fluoro-4-(thieno[2,3-d]pyrimidin-4-yloxy)phenyl)-4-phenylthiazole-2-carboxamide] returned a melting point of 78 to 80 °C. In addition, on c-Met, the IC50 came out at 0.0404 ± 0.00553 µM. Besides, in the data set on A549, the concentration for half-maximal inhibition (IC50) was 16.8 ± 2.28 µM. In addition, in the data set on HT-29, the half-inhibitory concentration (IC50) was 26.4 ± 3.22 µM. Also, in the data set on MKN-45, the 50% inhibitory concentration (IC50) came out at 5.53 ± 1.26 µM. In the data set on MDA-MB-231, the half-maximal inhibitory concentration (IC50) was found to be 35.9 ± 2.52 µM. Also, in the data set on FHC, the IC50 is 48.2 ± 5.04 µM. For the same compound, in the data set on HUVEC, the half-maximal inhibitory concentration (IC50) was found to be 38.8 ± 3.53 µM.

For the compound `O=C(Nc1ccc(Oc2ncnc3sccc23)c(F)c1)c1nc(-c2ccc(F)cc2)cs1` [Compound 51v, N-(3-Fluoro-4-(thieno[2,3-d]pyrimidin-4-yloxy)phenyl)-4-(4-fluorophenyl)thiazole-2-carboxamide], the melting point was 154 to 156 °C. Further, the IC50 on c-Met amounted to 0.0376 ± 0.00288 µM. In addition, in the data set with A549, the IC50 came to 12.6 ± 1.83 µM. In the data set with HT-29, the IC50 was 19.2 ± 2.85 µM. Further, in the data set on MKN-45, the IC50 came out at 4.23 ± 0.94 µM. Moreover, the concentration for half-maximal inhibition (IC50) in the data set on MDA-MB-231 came out at 29.1 ± 2.52 µM. In addition, the half-inhibitory concentration (IC50) in the data set with FHC was 63.3 ± 3.35 µM. The half-maximal inhibitory concentration (IC50) in the data set on HUVEC is 54.4 ± 4.16 µM.

Turning to `O=C(Nc1ccc(Oc2ccnc(Cl)c2)c(F)c1)c1nc(-c2ccccc2)cs1` [Compound 51w, N-(4-((2-Chloropyridin-4-yl)oxy)-3-fluorophenyl)-4-phenylthiazole-2-carboxamide], the melting point lay within 205 to 207 °C. At c-Met, the IC50 amounted to 0.0243 ± 0.00167 µM. For the same compound, in the data set with A549, the IC50 worked out at 7.26 ± 1.37 µM. For the same compound, the IC50 with HT-29 was determined as 12.5 ± 2.39 µM. The IC50 in the data set with MKN-45 came to 2.53 ± 0.62 µM. The IC50 in the data set with MDA-MB-231 stood at 26.3 ± 3.09 µM. Besides, the 50% inhibitory concentration (IC50) with FHC is 48.2 ± 5.04 µM. In addition, the concentration for half-maximal inhibition (IC50) with HUVEC came out at 38.6 ± 3.53 µM.

`Cc1ccc(-c2csc(C(=O)Nc3ccc(Oc4ccnc(Cl)c4)c(F)c3)n2)cc1` [Compound 51x, N-(4-((2-Chloropyridin-4-yl)oxy)-3-fluorophenyl)-4-(4-methylphenyl)thiazole-2-carboxamide] returned a melting point of 157 to 159 °C. At c-Met, the half-maximal inhibitory concentration (IC50) was 0.0315 ± 0.00425 µM. In addition, in the data set with A549, the concentration for half-maximal inhibition (IC50) came out at 8.65 ± 1.72 µM. Besides, the IC50 with HT-29 is 14.3 ± 2.13 µM. Moreover, the IC50 in the data set on MKN-45 turned out to be 3.46 ± 0.75 µM. Also, in the data set with MDA-MB-231, the 50% inhibitory concentration (IC50) stood at 28.6 ± 1.85 µM. Also, in the data set on FHC, the IC50 worked out at 43.4 ± 3.68 µM. Besides, the IC50 in the data set on HUVEC turned out to be 30.8 ± 2.43 µM.

As for `COc1ccc(-c2csc(C(=O)Nc3ccc(Oc4ccnc(Cl)c4)c(F)c3)n2)cc1OC` [Compound 51z, N-(4-((2-Chloropyridin-4-yl)oxy)-3-fluorophenyl)-4-(3,4-dimethoxyphenyl)thiazole-2-carboxamide], the melting point is 120 to 122 °C. Besides, the half-maximal inhibitory concentration (IC50) on c-Met is 0.0455 ± 0.00628 µM. The half-maximal inhibitory concentration (IC50) in the data set on A549 came to 11.3 ± 1.96 µM. The half-maximal inhibitory concentration (IC50) in the data set with HT-29 came out at 15.6 ± 2.51 µM. For the same compound, the IC50 in the data set with MKN-45 worked out at 4.05 ± 1.12 µM. The half-inhibitory concentration (IC50) in the data set with MDA-MB-231 turned out to be 20.5 ± 3.14 µM. The half-inhibitory concentration (IC50) in the data set with FHC is over 100 µM. For the same compound, in the data set with HUVEC, the half-maximal inhibitory concentration (IC50) was 26.5 ± 3.84 µM.

For `COc1cc2c(Oc3ccc(NC(=O)C4(C(=O)Nc5ccc(F)cc5)CC4)cc3F)ccnc2cc1OCCCN1CCOCC1` [Foretinib, reference compound], the IC50 in the data set on A549 amounted to 0.45 ± 0.05 µM; in the data set on HT-29, 0.37 ± 0.05 µM; in the data set with MKN-45, 0.058 ± 0.006 µM; in the data set on MDA-MB-231 it was 0.89 ± 0.14 µM; in the data set with FHC it was 4.06 ± 0.75 µM; with HUVEC, 0.68 ± 0.09 µM. Moreover, the “percentage of apoptotic cells” value in the data set with MKN-45 cells is 41.21%.

Turning to `Cn1cc(-c2ccc3nnc(Sc4ccc5ncccc5c4)n3n2)cn1` [SGX523], the “inhibition of phosphorylation of c-Met and Akt” value in data set [1] was “effectively inhibited the phosphorylation of c-Met and its downstream protein Akt”.

These data come from article PMC10467532, “Design, synthesis, and biological evaluation of thiazole/thiadiazole carboxamide scaffold-based derivatives as potential c-Met kinase inhibitors for cancer treatment” (Journal of Enzyme Inhibition and Medicinal Chemistry, 2023).
